From PubChem BioAssay (NCI)
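Exposure lasted 48 hours, with cells grown in 96-well plates and compounds tested at five concentrations. GI50 is the concentration that inhibits growth by half. Definition used: TGI = concentration required for complete inhibition of growth.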

Assays:
Experiment in all cases: inhibition of tumour cell growth, NCI panel, 48 h
KM12 colon = system: KM12 colon
T-47D breast = system: T-47D breast
SK-MEL-2 melanoma = system: SK-MEL-2 melanoma
SF-268 CNS = system: SF-268 CNS
SK-MEL-28 melanoma = system: SK-MEL-28 melanoma
SNB-19 CNS = system: SNB-19 CNS
HT29 colon = system: HT29 colon
IGROV1 ovarian = system: IGROV1 ovarian
SW-620 colon = system: SW-620 colon
MOLT-4 leukemia = system: MOLT-4 leukemia

Compound	GI50 (KM12 colon)	TGI (KM12 colon)	GI50 (T-47D breast)	TGI (T-47D breast)	GI50 (SK-MEL-2 melanoma)	TGI (SK-MEL-2 melanoma)	GI50 (SF-268 CNS)	TGI (SF-268 CNS)	GI50 (SK-MEL-28 melanoma)	TGI (SK-MEL-28 melanoma)	GI50 (SNB-19 CNS)	TGI (SNB-19 CNS)	GI50 (HT29 colon)	TGI (HT29 colon)	GI50 (IGROV1 ovarian)	TGI (IGROV1 ovarian)	GI50 (SW-620 colon)	TGI (SW-620 colon)	GI50 (MOLT-4 leukemia)	TGI (MOLT-4 leukemia)
COc1ccc(-n2nnnc2-c2c[nH]c3c(F)cc(F)cc23)cc1	> 100 µM	> 100 µM	> 100 µM	> 100 µM	> 100 µM	> 100 µM	40.3 µM	> 100 µM	> 100 µM	> 100 µM	75.5 µM	> 100 µM	> 100 µM	> 100 µM	> 100 µM	> 100 µM	> 100 µM	> 100 µM	> 100 µM	> 100 µM
CC1=C2C[C@H]3[C@@H](CC[C@@H]4CC(NS(C)(=O)=O)CC[C@@]43C)[C@@H]2CC[C@@]2(C1)O[C@@H]1C[C@H](C)CN[C@H]1[C@H]2C (stereo partly drawn)	9.22 µM	22.6 µM	2.68 µM	7.51 µM	6.76 µM	15.4 µM	12.1 µM	26.6 µM	4.81 µM	11.3 µM	12.5 µM	27 µM	3.5 µM	11.3 µM	11.9 µM	26 µM	13.8 µM	28.9 µM	5.5 µM	23.2 µM
COc1ccccc1CCN=C1NC(=O)/C(=C/c2ccc3ncccc3c2)S1	3.34 µM	> 25 µM	6.76 µM	> 23.1 µM	6.57 µM	13.5 µM	7.54 µM	> 25 µM	8.22 µM	> 25 µM	4.93 µM	> 25 µM	2.47 µM	15.7 µM	4.87 µM	19.6 µM	1.32 µM	> 25 µM	6.42 µM	15.7 µM
O=C1NC(O)C(c2c[nH]c3ccccc23)=C1c1c[nH]c2ccccc12 (stereo not drawn)	> 25 µM	> 25 µM	> 25 µM	> 25 µM	> 25 µM	> 25 µM	> 25 µM	> 25 µM	> 25 µM	> 25 µM	> 25 µM	> 25 µM	> 25 µM	> 25 µM	> 25 µM	> 25 µM	> 25 µM	> 25 µM	> 25 µM	> 25 µM
CCCc1cc2c(=O)c(C(=O)OC)c[nH]c2cc1N(CC)CC	45.5 µM	> 100 µM	53 µM	> 100 µM	36.1 µM	97.8 µM	28.6 µM	87.6 µM	81.7 µM	> 100 µM	28.6 µM	77.8 µM	72.1 µM	> 100 µM	> 100 µM	> 100 µM	45.6 µM	> 100 µM	> 100 µM	> 100 µM
Cn1c(/C=C(\C#N)c2ccccc2)nc2c(N3CCOCC3)nc(Cl)nc21	1.87 µM	3.77 µM	1.23 µM	3.75 µM	1.62 µM	3.18 µM	1.55 µM	3.15 µM	1.57 µM	2.96 µM	1.6 µM	3.09 µM	0.386 µM	1.47 µM	0.871 µM	2.17 µM	0.413 µM	1.51 µM	0.669 µM	3.12 µM
C#CCC(Cc1cnc2nc(N)nc(N)c2n1)c1ccc(C(=O)N[C@@H](CCC(=O)O)C(=O)O)cc1 (stereo partly drawn)	< 0.01 µM	> 100 µM	> 100 µM	> 100 µM	> 100 µM	> 100 µM	< 0.01 µM	> 100 µM	0.0901 µM	> 100 µM	< 0.0131 µM	> 100 µM	< 0.01 µM	> 100 µM	< 0.01 µM	> 100 µM	< 0.01 µM	> 100 µM	< 0.01 µM	> 100 µM
COc1cc(C)c(Cl)cc1C1=NN(c2ccc(S(N)(=O)=O)cc2)C(/C=C/c2ccccc2)C1 (stereo not drawn)	3.4 µM	14.8 µM	3.34 µM	16 µM	3.24 µM	8.75 µM	4.4 µM	> 100 µM	3.1 µM	11.4 µM	8.08 µM	> 100 µM	1.8 µM	4.07 µM	4.15 µM	43.9 µM	4.09 µM	20.7 µM	3.37 µM	64.4 µM
Cc1cc(S(N)(=O)=O)c(S/C(CC(C)C)=N\Nc2ccc([N+](=O)[O-])cc2)cc1Cl	3.32 µM	13.2 µM	3.1 µM	8.33 µM	8.22 µM	34.6 µM	7.21 µM	23.1 µM	13.9 µM	27.8 µM	13.2 µM	27.3 µM	3.88 µM	15.3 µM	6.77 µM	21.2 µM	8.82 µM	29.9 µM	4.57 µM	> 100 µM
COC1CC2CCC(C)C(O)(O2)C(=O)C(=O)N2CCCCC2C(=O)OC(C(C)CC2CCC(O)C(OC)C2)CC(=O)C(C)C=C(C)C(O)C(OC)C(=O)C(C)CC(C)/C=C/C=C/C=C1C (stereo not drawn)	3.47 µM	11.2 µM	< 0.005 µM	20.9 µM	5.19 µM	12.3 µM	3.82 µM	11.5 µM	3.23 µM	11.2 µM	1.45 µM	17 µM	–	10.8 µM	< 0.005 µM	11.8 µM	5.39 µM	14 µM	0.0787 µM	13.9 µM
C=CC(=O)N1CCN(c2nc(=O)n(-c3c(C)ccnc3C(C)C)c3nc(-c4c(O)cccc4F)c(F)cc23)[C@@H](C)C1	23.4 µM	54 µM	40.9 µM	> 100 µM	31 µM	> 78 µM	35.6 µM	> 100 µM	> 58.7 µM	> 100 µM	57.8 µM	> 100 µM	35.9 µM	> 100 µM	> 44.7 µM	> 73.9 µM	36.8 µM	> 100 µM	18.7 µM	71 µM
CC(C)(O)CS(=O)(=O)Nc1ccc2c(c1)CCN(C(=O)COc1cccnc1)C2	0.277 µM	> 100 µM	> 35.2 µM	> 100 µM	> 100 µM	> 100 µM	> 100 µM	> 100 µM	> 100 µM	> 100 µM	–	> 100 µM	0.743 µM	> 100 µM	> 84 µM	> 100 µM	0.0495 µM	> 100 µM	> 100 µM	> 100 µM
C=C(CN1C(=O)[C@H]2CCCN2C(=O)c2ccccc21)c1ccc(C(=O)O)cc1	> 100 µM	> 100 µM	> 100 µM	> 100 µM	> 100 µM	> 100 µM	> 100 µM	> 100 µM	> 100 µM	> 100 µM	> 100 µM	> 100 µM	> 100 µM	> 100 µM	> 100 µM	> 100 µM	> 100 µM	> 100 µM	> 100 µM	> 100 µM
COc1c(OC)c(OC)c2c(c1OC)c(=O)c1ccccc1n2C	–	> 100 µM	–	> 100 µM	–	> 100 µM	–	> 100 µM	–	> 100 µM	–	> 100 µM	–	> 100 µM	–	> 100 µM	–	> 100 µM	–	> 100 µM
O=C(Nc1cc(Cl)cc(Cl)c1)c1ccc(NC2=C(Cl)C(=O)N(Cc3ccc(Cl)cc3Cl)C2=O)cc1	13.6 µM	47.7 µM	3.12 µM	73.9 µM	23.5 µM	43.9 µM	8.87 µM	39.4 µM	21.4 µM	75.8 µM	21.4 µM	83.4 µM	49.3 µM	> 100 µM	2.15 µM	7.17 µM	1.38 µM	13.1 µM	0.249 µM	1.53 µM
COc1ccc(/C=C/C(=O)c2ccc(SC)cc2)cc1OC	3.9 µM	22.6 µM	37.2 µM	> 100 µM	19.4 µM	42.6 µM	22.3 µM	63.8 µM	18.2 µM	39.8 µM	21 µM	56.9 µM	4.57 µM	87.5 µM	4.73 µM	25.2 µM	4.44 µM	> 100 µM	22.4 µM	> 100 µM
